# Assay results published in patent publication US10919852B2, “Immunomodulator compounds” (CHEMOCENTRYX, INC., priority 2017, dated 2021).
# Molecular target: human PD-L1 / Human PD-1 (Homo sapiens (Human), UniProt Q9NZQ7)
# Assay: Enzyme-Linked Immunosorbent Assay (ELISA), PD-1/PD-L1 binding
# Details: plate-coated human PD-L1, biotinylated human PD-1
# Description: Biological Example: Enzyme-Linked Immunosorbent Assay—ELISA
# 96 Well plates were coated with […] of human PD-L1 (obtained from R&D) in PBS overnight at 4° C. The wells were then blocked with 2% BSA in PBS (W/V) with 0.05% TWEEN-20 for 1 hour at 37° C. The plates were washed 3 times with PBS/0.05% TWEEN-20 and the compounds were serial diluted (1:5) in dilution medium and added to the ELISA plates. Human PD-1 and biotin 0.3 μg/mL (ACRO Biosystems) were added and incubated for 1 hour at 37° C. then washed 3 times with PBS/0.05% TWEEN-20. A second block was performed with 2% BSA in PBS (W/V)/0.05% TWEEN-20 for 10 min at 37° C. and was washed 3 times with PBS/0.05% TWEEN-20. Streptavidin-HRP was added for 1 hour at 37° C. then washed 3 times with PBS/0.05% TWEEN-20. TMB substrate was added and reacted for 20 min at 37° C. A stop solution (2 N aqueous H2SO4) was added. The absorbance was read at 450 nm using a micro-plate spectrophotometer.
# human PD-L1 / Human PD-1, sequence (Q9NZQ7 19-239): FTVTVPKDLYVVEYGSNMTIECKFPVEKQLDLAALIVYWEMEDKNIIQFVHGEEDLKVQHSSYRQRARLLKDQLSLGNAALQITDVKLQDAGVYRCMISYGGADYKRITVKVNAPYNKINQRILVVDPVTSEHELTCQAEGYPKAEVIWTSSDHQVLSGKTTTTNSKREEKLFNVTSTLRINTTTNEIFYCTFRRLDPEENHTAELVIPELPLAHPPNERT
row,Compound,IC50
1,Cc1c(OCCCN2CCC[C@@H](O)C2)cccc1-c1cccc2c1CC[C@@H]2Oc1cc(OCc2cncc(C#N)c2)c(CN[C@H](C(=O)O)[C@@H](C)O)cc1Cl,< 5 nM
2,Cc1c(OCCCN2CCC[C@H](O)C2)cccc1-c1cccc2c1CC[C@@H]2Oc1cc(OCc2cncc(C#N)c2)c(CN[C@H](C(=O)O)[C@@H](C)O)cc1Cl,< 5 nM
3,Cc1c(OCCCN2CCC(O)CC2)cccc1-c1cccc2c1CC[C@@H]2Oc1cc(OCc2cc(C#N)cc(C#N)c2)c(CN[C@@](C)(CO)C(=O)O)cc1Cl,< 5 nM
4,Cc1c(OCCCN2CC[C@@H](O)C2)cccc1-c1cccc2c1CC[C@@H]2Oc1cc(OCc2cncc(C#N)c2)c(CN[C@H](C(=O)O)[C@@H](C)O)cc1Cl,< 5 nM
5,Cc1c(OCCCN2CCC(F)CC2)cccc1-c1cccc2c1CC[C@@H]2Oc1cc(OCc2cncc(C#N)c2)c(CN[C@H](C(=O)O)[C@@H](C)O)cc1Cl,< 5 nM
6,N#Cc1cncc(COc2cc(O[C@H]3CCc4c(-c5cccc(OCCCN6CC(O)C6)c5Cl)cccc43)c(Cl)cc2CNC[C@@H]2CCC(=O)N2)c1,< 5 nM
7,N#Cc1cncc(COc2cc(O[C@H]3CCc4c(-c5cccc(OCCCN6CC(O)C6)c5Cl)cccc43)c(Cl)cc2CN2CC3(CC(O)C3)C2)c1,< 5 nM
8,CC(C)(O)CNCc1cc(Cl)c(O[C@H]2CCc3c(-c4cccc(OCCCN5CC(O)C5)c4Cl)cccc32)cc1OCc1cncc(C#N)c1,< 5 nM
9,C[C@@H](O)[C@H](NCc1cc(Cl)c(O[C@H]2CCc3c(-c4cccc(OCCCN5CC(O)C5)c4Cl)cccc32)cc1OCc1cncc(C#N)c1)C(=O)O,< 5 nM
10,N#Cc1cncc(COc2cc(O[C@H]3CCc4c(-c5cccc(OCCCN6CC(O)C6)c5Cl)cccc43)c(Cl)cc2CNCC(=O)O)c1,< 5 nM
11,CCCC(CO)(NCc1cc(Cl)c(O[C@H]2CCc3c(-c4cccc(OCCCN5CC(O)C5)c4Cl)cccc32)cc1OCc1cncc(C#N)c1)C(=O)O (some centres unmarked),< 5 nM
12,COc1cc(O[C@H]2CCc3c(-c4cccc(OCCCN5CC(O)C5)c4Cl)cccc32)cc(OC)c1CN[C@@](C)(CO)C(=O)O,5 to 500 nM
13,C[C@@](CO)(NCc1cc(Cl)c(O[C@H]2CCc3c(-c4cccc(OCCCN5CC(O)C5)c4Cl)cccc32)cc1-c1cncc(C#N)c1)C(=O)O,< 5 nM
14,Cc1c(OCCCN2CCC(F)CC2)cccc1-c1cccc2c1CC[C@@H]2Oc1cc(OCc2cncc(C#N)c2)c(CNC[C@H]2CCC(=O)N2)cc1Cl,< 5 nM
15,N#Cc1cncc(COc2cc(O[C@H]3CCc4c(-c5cccc(OCCCN6CCC(O)CC6)c5Cl)cccc43)c(Cl)cc2CNC[C@@H]2CCC(=O)N2)c1,< 5 nM
16,N#Cc1cncc(COc2cc(O[C@H]3CCc4c(-c5cccc(OCCCN6CCC(O)CC6)c5Cl)cccc43)c(Cl)cc2CNC[C@H]2CCC(=O)N2)c1,< 5 nM
17,N#Cc1cncc(COc2cc(O[C@H]3CCc4c(-c5cccc(OCCCN6CCC(F)CC6)c5Cl)cccc43)c(Cl)cc2CNC[C@H]2CCC(=O)N2)c1,< 5 nM
18,N#Cc1cncc(COc2cc(O[C@H]3CCc4c(-c5cccc(OCCCN6CCC(F)CC6)c5Cl)cccc43)c(Cl)cc2CN2CC[C@@H](O)C2)c1,< 5 nM
19,N#Cc1cncc(COc2cc(O[C@H]3CCc4c(-c5cccc(OCCCN6CCC(F)CC6)c5Cl)cccc43)c(Cl)cc2CN[C@H]2CCOC[C@@H]2O)c1,< 5 nM

row,Compound,IC50
1,N#Cc1cncc(COc2cc(O[C@H]3CCc4c(-c5cccc(OCCCN6CCC(F)CC6)c5Cl)cccc43)c(Cl)cc2CN2CC[C@@H](F)C2)c1,< 5 nM
2,CC1(O)CN(Cc2cc(Cl)c(O[C@H]3CCc4c(-c5cccc(OCCCN6CCC(F)CC6)c5Cl)cccc43)cc2OCc2cncc(C#N)c2)C1,< 5 nM
3,CC1(O)CCN(Cc2cc(Cl)c(O[C@H]3CCc4c(-c5cccc(OCCCN6CCC(F)CC6)c5Cl)cccc43)cc2OCc2cncc(C#N)c2)CC1,< 5 nM
4,N#Cc1cncc(COc2cc(O[C@H]3CCc4c(-c5cccc(OCCCN6CC7(CC(O)C7)C6)c5Cl)cccc43)c(Cl)cc2CN[C@@H]2CCCC[C@@H]2O)c1,< 5 nM
5,N#Cc1cncc(COc2cc(O[C@H]3CCc4c(-c5cccc(OCCCN6CC(F)(F)C6)c5Cl)cccc43)c(Cl)cc2CNC[C@@H]2CCC(=O)N2)c1,5 to 500 nM
6,Cc1c(OCCCN2CCC(F)CC2)cccc1-c1cccc2c1CC[C@@H]2Oc1cc(OCc2cc(C#N)cc(C#N)c2)c(CNC[C@H]2CCC(=O)N2)cc1Cl,5 to 500 nM
7,N#Cc1cncc(COc2cc(O[C@H]3CCc4c(-c5cccc(OCCCN6CCCCC6)c5Cl)cccc43)c(Cl)cc2CNC[C@H]2CCC(=O)N2)c1,< 5 nM
8,N#Cc1cncc(COc2cc(O[C@H]3CCc4c(-c5cccc(OCCCN6CCCCC6)c5Cl)cccc43)c(Cl)cc2CNC[C@@H]2CCC(=O)N2)c1,< 5 nM
9,N#Cc1cncc(COc2cc(O[C@H]3CCc4c(-c5cccc(OCCCN6CCCCC6)c5Cl)cccc43)c(Cl)cc2CN[C@@H]2CCCC[C@@H]2O)c1,< 5 nM
10,C[C@@H](O)[C@H](NCc1cc(Cl)c(O[C@H]2CCc3c(-c4cccc(OCCCN5CCCCC5)c4Cl)cccc32)cc1OCc1cncc(C#N)c1)C(=O)NS(C)(=O)=O,< 5 nM
11,N#Cc1cncc(COc2cc(O[C@H]3CCc4c(-c5cccc(OCCCN6CC(F)(F)C6)c5Cl)cccc43)c(Cl)cc2CNC[C@H]2CCC(=O)N2)c1,5 to 500 nM
12,N#Cc1cncc(COc2cc(O[C@H]3CCc4c(-c5cccc(OCCCN6CCC(F)CC6)c5Cl)cccc43)c(Cl)cc2CN[C@@H]2CCC[C@@H]2O)c1,< 5 nM
13,N#Cc1cncc(COc2cc(O[C@H]3CCc4c(-c5cccc(OCCCN6CCC(F)CC6)c5Cl)cccc43)c(Cl)cc2CN[C@@H]2CCC[C@H]2O)c1,< 5 nM
14,C[C@@](CO)(NCc1cc(Cl)c(O[C@H]2CCc3c(-c4cccc(OCCCN)c4Cl)cccc32)cc1OCc1cncc(C#N)c1)C(=O)O,< 5 nM
15,CC1(C)CC(O)CCN1CCCOc1cccc(-c2cccc3c2CC[C@@H]3Oc2cc(OCc3cncc(C#N)c3)c(CN[C@@H]3CCCC[C@@H]3O)cc2Cl)c1Cl (some centres unmarked),< 5 nM
16,CC1(F)CCN(CCCOc2cccc(-c3cccc4c3CC[C@@H]4Oc3cc(OCc4cncc(C#N)c4)c(CN[C@@H]4CCCC[C@@H]4O)cc3Cl)c2Cl)CC1,< 5 nM
17,C[C@@H](O)[C@H](NCc1cc(Cl)c(O[C@H]2CCc3c(-c4cccc(OCCCN5CCC(C)(F)CC5)c4Cl)cccc32)cc1OCc1cncc(C#N)c1)C(=O)NS(C)(=O)=O,< 5 nM
18,CCOc1cc(O[C@H]2CCc3c(-c4cccc(OCCCN5CCC(F)CC5)c4Cl)cccc32)c(Cl)cc1CN[C@@H]1CCOC[C@H]1O,5 to 500 nM
19,CCOc1cc(O[C@H]2CCc3c(-c4cccc(OCCCN5CCC(F)CC5)c4Cl)cccc32)c(Cl)cc1CN[C@H](C(=O)NS(C)(=O)=O)[C@@H](C)O,5 to 500 nM

row,Compound,IC50
1,CC(=O)OC1CCN(CCCOc2cccc(-c3cccc4c3CC[C@@H]4Oc3cc(OCc4cncc(C#N)c4)c(CN[C@@H]4CCCC[C@@H]4O)cc3Cl)c2Cl)CC1,< 5 nM
2,N#Cc1cncc(COc2cc(O[C@H]3CCc4c(-c5cccc(OCCCN6CCC(F)CC6)c5Cl)cccc43)c(Cl)cc2CN[C@H]2CCC[C@H]2O)c1,< 5 nM
3,N#Cc1cncc(COc2cc(O[C@H]3CCc4c(-c5cccc(OCCCN6CCC(F)CC6)c5Cl)cccc43)c(Cl)cc2CN[C@H]2CCC[C@@H]2O)c1,< 5 nM
4,N#Cc1cncc(COc2cc(O[C@H]3CCc4c(-c5cccc(OCCCN6CCC(F)CC6)c5Cl)cccc43)c(Cl)cc2CNCC2CNC(=O)C2)c1 (some centres unmarked),< 5 nM
5,Cc1c(OCCCN2CCC(F)CC2)cccc1-c1cccc2c1CC[C@@H]2Oc1cc(OCc2cc(C#N)cc(C#N)c2)c(CNC[C@@H]2CCC(=O)N2)cc1Cl,< 5 nM
6,CC1(F)CCN(Cc2cc(Cl)c(O[C@H]3CCc4c(-c5cccc(OCCCN6CCC(F)CC6)c5Cl)cccc43)cc2OCc2cncc(C#N)c2)CC1,5 to 500 nM
7,C[C@@](CO)(NCc1cc(Cl)c(O[C@H]2CCc3c(-c4cccc(OCCCN5CCC5)c4Cl)cccc32)cc1OCc1cncc(C#N)c1)C(=O)O,< 5 nM
8,N#Cc1cncc(-c2cc(O[C@H]3CCc4c(-c5cccc(OCCCN6CCC(F)CC6)c5Cl)cccc43)c(Cl)cc2CNC[C@H]2CCC(=O)N2)c1,500 to 20000 nM
9,N#Cc1cncc(-c2cc(O[C@H]3CCc4c(-c5cccc(OCCCN6CCC(F)CC6)c5Cl)cccc43)c(Cl)cc2CN[C@@H]2CCCC[C@@H]2O)c1,5 to 500 nM
10,C[C@@H](O)[C@H](NCc1cc(Cl)c(O[C@H]2CCc3c(-c4cccc(OCCCN5CCC(F)CC5)c4Cl)cccc32)cc1OCc1cncc(C#N)c1)C(=O)NS(C)(=O)=O,< 5 nM
11,N#Cc1cncc(COc2cc(O[C@H]3CCc4c(-c5cccc(OCCCN6CCC(F)CC6)c5Cl)cccc43)c(Cl)cc2CN[C@@H]2CCOC[C@H]2O)c1,< 5 nM
12,N#Cc1cncc(COc2cc(O[C@H]3CCc4c(-c5cccc(OCCCN6CCC(F)CC6)c5Cl)cccc43)c(Cl)cc2CN[C@@H]2CCOC[C@@H]2O)c1,< 5 nM
13,N#Cc1cncc(COc2cc(O[C@H]3CCc4c(-c5cccc(OCCCN6CCC(F)CC6)c5Cl)cccc43)c(Cl)cc2CN[C@H]2CCOC[C@H]2O)c1,< 5 nM
14,N#Cc1cncc(COc2cc(O[C@H]3CCc4c(-c5cccc(OCCCN6CC7(CC(O)C7)C6)c5Cl)cccc43)c(Cl)cc2CN[C@@H]2CCC[C@@H]2O)c1,< 5 nM
15,N#Cc1cncc(COc2cc(O[C@H]3CCc4c(-c5cccc(OCCCN6CC7(CC(O)C7)C6)c5Cl)cccc43)c(Cl)cc2CN[C@@H]2CCC[C@H]2O)c1,< 5 nM
16,N#Cc1cncc(COc2cc(O[C@H]3CCc4c(-c5cccc(OCCCN6CC7(CC(O)C7)C6)c5Cl)cccc43)c(Cl)cc2CN[C@H]2CCC[C@H]2O)c1,< 5 nM
17,N#Cc1cncc(COc2cc(O[C@H]3CCc4c(-c5cccc(OCCCN6CCC(F)CC6)c5Cl)cccc43)c(Cl)cc2CN2CCNC(=O)C2)c1,5 to 500 nM
18,N#Cc1cncc(COc2cc(O[C@H]3CCc4c(-c5cccc(OCCCN6CCC(F)CC6)c5Cl)cccc43)c(Cl)cc2CN[C@@H]2CCOC[C@@H]2F)c1,5 to 500 nM
